Laboratory results: US20240391928A1, “COMPOSITIONS FOR THE TREATMENT OF FOOD AND CHEMICAL ADDICTION AND METHODS OF MAKING AND USING SAME” (Duke University, priority 2021, published 2024)
“And” between values parts separate entries of the source, which are not always exact repeats. Identical values can stand only once. “Also recorded” adds a separate entry of the source.

Columns and labels:
[1] = molecular target: T1, hGHSR1a^D99A (Homo sapiens, UniProt Q92847, D99A); assay: Gαq dissociation (TRUPATH) and iCa2+ at D99A mutant; assay type: cell-based; conditions: surface expression reduced markedly
T1 construct: expressed in transfected cells; host or cells: HEK293/T, transient
T1 sequence (Q92847 whole entry D99A): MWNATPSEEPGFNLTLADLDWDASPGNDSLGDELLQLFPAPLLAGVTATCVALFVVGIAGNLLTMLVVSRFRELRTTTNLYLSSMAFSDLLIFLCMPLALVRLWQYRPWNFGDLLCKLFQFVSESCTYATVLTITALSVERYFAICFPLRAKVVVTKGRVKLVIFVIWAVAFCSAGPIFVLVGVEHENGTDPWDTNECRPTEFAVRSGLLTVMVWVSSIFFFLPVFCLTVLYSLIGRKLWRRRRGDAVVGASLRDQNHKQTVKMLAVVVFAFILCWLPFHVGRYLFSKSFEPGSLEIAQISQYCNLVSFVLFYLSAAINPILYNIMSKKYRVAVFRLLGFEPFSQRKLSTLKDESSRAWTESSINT
Experimental: (§1) For experiments with WT and Gt KO HEK293/S cells, […] of hGHSR1a^WT, 10 μg of miAEQ, and 2.5 μg of pcDNA3.1 was transiently transfected into 10 cm dishes and incubated overnight. […] Twenty-four hours later, experiments proceeded in accordance with the procedures described above. To control for any possible kinetic differences in genetically modified cell lines or GHSR1a variants, the average ligand-induced response over 10 seconds was calculated, then normalized by dividing the L-miAeq by the L-miAeq plus the Lysis-miAeq and normalized to the appropriate control/reference condition.

[2] = tested on: DAT knockout (KO) mice; assay: Spontaneous hyperlocomotion in DAT KO mice (open field); assay type: in vivo, mouse; conditions: 2.5, 5, or 10 mg/kg, IP; 120 minutes
Experimental: To evaluate the effect of N8279 on DAergic-modulated behavior in vivo, DAT knockout (KO) mice, which have constitutively elevated extracellular DA levels and consequently, spontaneous hyperactivity in a novel, open-field were used. After a 30 minute acclimation period, male and female DAT KO mice were administered vehicle or pharmacologically-relevant, brain penetrant doses of N8279 (FIG. 4A; 2.5, 5, or 10 mg/kg, IP), then were returned to the open-field and locomotion measured for 120 minutes.
Novelty-induced locomotor activity in DAT KO and inbred C57BL/6J mice. Open-field locomotor activity in mice was performed similar to that described in Barak et al., ACS Chem Biol. (2016)11(7):1880-90, the disclosure of which is incorporated herein in its entirety. In brief, Age- and sex-matched, littermate DAT KO and inbred C57BL/6J mice between 2-6 months of age were used to measure locomotor activity in an Omnitech Digiscan activity monitor (20×20 cm2; Accuscan Instruments, Columbus, OH). Locomotor activity was measured at 5 minutes intervals. To evaluate the effects of compounds on locomotor behavior, the mice were placed in an activity monitor for a 20-minute habituation period, and afterwards injected with drug or vehicle, returned to the monitor, and locomotor activity was recorded over a period of 90 minutes.

[3] = molecular target: T2, hGHSR1a^WT in Gαq/11 KO HEK293/S cells (Homo sapiens, UniProt Q92847); assay: iCa2+ in Gαq/11 KO HEK293/S cells; assay type: cell-based; conditions: 10 μM ligand
T2 construct: expressed in transfected cells; SRF-RE reporter); HEK293/S Gαq/11 KO and parental WT (iCa2+)
T2 sequence (Q92847 whole entry): as the sequence (Q92847 whole entry D99A) above, with A99D counted along it
Experimental: as §1

[4] = molecular target: hGHSR1a^WT (Homo sapiens, UniProt Q92847); conditions: 100 nM, 45 minutes
Sequence of hGHSR1a^WT (Q92847 whole entry): as the sequence (Q92847 whole entry D99A) above, with A99D counted along it
Experimental: U2OS cells stably expressing the human GHSR1a^WT and β-arr2^GFP were seeded onto 35 mm MatTek (Ashland, MA, USA) glass coverslip dishes in opti-MEM supplemented with 2% FBS and antibiotic-antimycotic and grown overnight in a humified incubator (5% CO2, 37° C.). The next morning, media was aspirated and replaced with fresh, serum-free opti-MEM (supplemented with antibiotic-antimycotic). […] Next, treatment was terminated by aspiration of media, a PBS wash, and fixation with 4% paraformaldehyde (20 minutes, room temperature (RT)). Fixed cells were either stored at 4° C. or immediately imaged for β-arr2^GFP translocation with a Zeiss LSM 510 meta confocal microscopy.

[5] = tested on: C57BL/6J mice; assay: Cocaine-induced behavioral sensitization; assay type: in vivo, mouse; conditions: N8279 5 mg/kg IP; cocaine 20 mg/kg
Experimental: Next, cocaine-induced behavioral sensitization was assessed in male and female C57BL/6J mice following subchronic (8-day) administration of the vehicle or N8279 (5 mg/kg, IP) in the home-cage. Subsequently, mice were given the same treatments as described above, followed with an injection (IP) of vehicle or cocaine (20 mg/kg) in the open-field once per day for 5 days (FIG. 4D). A […] hiatus (washout) was imposed and behavioral sensitization was assessed the next day by giving (IP) vehicle or cocaine (challenge). […] By comparison, motor activities were stimulated acutely (day 1) to similar extents in the vehicle+cocaine and N8279+cocaine mice (FIG. 4E). […] Moreover, at challenge (day 11), locomotor activity was augmented relative to day 1 in the vehicle+cocaine mice, whereby no change in activity was evident in the N8279+cocaine mice.
Cocaine Sensitization. Male and female C57BL6/J mice (Jackson Labs, Bar Harbor, ME) were administered (IP) vehicle or N8279 (5 mg/kg) subchronically for 8 consecutive days (once/day) (FIG. 4D). Subsequently, mice were placed into the open-field (Accuscan Instruments, Columbus, OH) for 30 min, they were removed, injected (IP) with vehicle or N8279, returned to the open field for 30 min, then the mice were given (IP) vehicle or cocaine (20 mg/kg) and returned to the open-field for 120 minutes (FIG. 4D). […]

[6] = molecular target: T3, GHSR1a^E197A (Homo sapiens, UniProt Q92847, E197A); assay: TRUPATH Gαq dissociation at E197A mutant; assay type: cell-based
T3 construct: expressed in transfected cells; host or cells: HEK293/T
T3 sequence (Q92847 whole entry E197A): as the sequence (Q92847 whole entry D99A) above, with A99D, E197A counted along it

[7] = molecular target: hGHSR1a^A204E (Homo sapiens, UniProt Q92847, A204E); assay: cell-based; conditions: read-out: Gαq dissociation maximal efficacy decrease at GHSR1a^A204E
Sequence of hGHSR1a^A204E (Q92847 whole entry A204E): as the sequence (Q92847 whole entry D99A) above, with A99D, A204E counted along it
Experimental: BRET-based Gαq Dissociation & β-arr2 Recruitment Assays. TRUPATH Gα dissociation: Gαq/i1/i2/OA/12/13/sS^RLuc8 and Gγ8^GFP2 or Gγ9^GFP2 were transiently co-transfected with human 3×HA-GHSR1a^WT and untagged Gβ3 at a 1:1:1:1 ratio (100 μg each) into monolayers of HEK293/T cells along with 1.6 μg pcDNA3.1. The next morning, media (DMEM supplemented with 10% FBS and antibiotic/antimycotic) was exchanged and after 4-6 hours, cells were plated on white 96-well, clear-bottomed assay plates at a density of 40,000-50,000 cells/well in opti-MEM supplemented with 2% FBS and antibiotic/antimycotic. The next morning, opti-MEM was removed and cells were incubated with 80 μL HBSS supplemented with 20 mM HEPES (pH 7.4) for 4 hours. Cells were then treated with 10 μL of the luminescent substrate, coelenterazine 400a (5 μM final), for 5 minutes at room temperature prior to the addition of 10 μL of test compound. Five minutes after ligand application, luminescence was measured by a Mithras 940 plate reader over 30 minutes and the maximal response was utilized for generating all C/R curves.

[8] = molecular target: T4, hGHSR1a^WT-RLucII (Homo sapiens, UniProt Q92847); assay: Bystander BRET endosomal trafficking (2xFYVE-Venus); assay type: cell-based; conditions: 60-minute post-treatment
T4 construct: expressed in transfected cells; host or cells: HEK293/T, transient
T4 sequence (Q92847 whole entry): as the sequence (Q92847 whole entry D99A) above, with A99D counted along it
Experimental: Bystander BRET (bBRET). hGHSR1a^WT-RLucII and plasma membrane marker, MyrPalm^mVenus, or the early endosomal marker, 2×-FYVE^mVenus, was transiently co-transfected in HEK293/T cells at a ratio of 1:5 or 1:12.5, respectively. […] Plates were then read by a Mithras 940 plate reader every 5 minutes over 1 hour (MyrPalm^mVenus) or 2 hours (2×FYVE^mVenus) to determine a BRET ratios. To generate CR curves, the average net BRET over 60 minutes post-treatment was used.

[9] = molecular target: GHSR1a (Homo sapiens, UniProt Q92847); assay: Bias factor, intrinsic relative activities (RAi) model, Gαq vs β-arr2; design: expressed in transfected cells; host or cells: HEK293/T and HEK293/N (the source assays)
Sequence of GHSR1a (Q92847 whole entry): as the sequence (Q92847 whole entry D99A) above, with A99D counted along it
Excerpt: To quantitatively assess N8279 bias between the Gαq and β-arr2 (FIG. 2A) pathways, the intrinsic relative activities (RAi) model was used. […] Ultimately, these analyses together supported that N8279 was a G protein-biased agonist of both proximal and downstream GHSR1a-Gαq signaling.

Q: How did the “signaling at GHSR1a^D99A in words” value [1] turn out when COc1ccc(C(=O)c2c(C(=O)NCCCN(C)C)oc3ccc(Cl)cc3c2=O)cc1OC [Example N8279, 6-Chloro-3-(3,4-dimethoxybenzoyl)-N-(3-(dimethylamino)propyl)-4-oxo-4H-chromene-2-carboxamide] was run?
A: abolished

Q: And the “hyperlocomotion in DAT KO mice in words” value [2]?
A: reduced locomotion; also recorded: reduced overall hyperlocomotion

Q: And the “agonist-induced iCa2+ in Gαq/11 KO cells” value [3]?
A: abolished

Q: What about the “β-arr2^GFP translocation in words” value [4] of the same compound?
A: minimal response

Q: And the “cocaine-induced behavioral sensitization in words” value [5]?
A: delayed the appearance of sensitization across days and abrogated the expression of sensitization following washout

Q: And the “Gαq dissociation potency reduction at GHSR1a^E197A” value [6]?
A: ~10 fold

Q: And the Emax [7]?
A: ~45%

Q: What about the “endosomal transit, fold less potent than ghrelin (bBRET 2xFYVE)” value [8] of the same compound?
A: 32 fold

Q: And the “endosomal transit, less efficacious than ghrelin (bBRET 2xFYVE)” value [8]?
A: ~35%

Q: And the downstream bias ([9]; reference L585)?
A: ~14 fold

Q: And the “downstream bias factor (β)” value ([9]; reference L585)?
A: 1.15

Q: What about the proximal bias ([9]; reference L585) of the same compound?
A: ~28 fold

Q: And the “proximal bias factor (β)” value ([9]; reference L585)?
A: 1.45

Q: And the “assay-standardized proximal bias factor (β), BRET-Gαq/BRET-β-arr2” value ([9]; reference ghrelin)?
A: 1.16±0.11 and 1.16

Q: What about the “assay-standardized proximal bias factor (β), NanoBiT-Gαq/NanoBiT-β-arr2” value ([9]; reference ghrelin) of the same compound?
A: 1.36±0.33 and 1.36

Q: What about the “assay-standardized proximal bias, BRET-Gαq/BRET-β-arr2” value ([9]; reference ghrelin) of the same compound?
A: ~14 fold

Q: What about the “assay-standardized proximal bias, NanoBiT-Gαq/NanoBiT-β-arr2” value ([9]; reference ghrelin) of the same compound?
A: ~23 fold

Q: And the “downstream bias factor (β), iCa2+ vs NanoBiT β-arr2” value ([9]; reference ghrelin)?
A: 2.63

Q: And the “downstream bias, iCa2+ vs NanoBiT β-arr2” value ([9]; reference ghrelin)?
A: ~427 fold

Q: What about the “proximal bias factor (β), Gαq dissociation vs NanoBiT β-arr2” value ([9]; reference ghrelin) of the same compound?
A: 0.59

Q: And the “proximal bias, Gαq dissociation vs NanoBiT β-arr2” value ([9]; reference ghrelin)?
A: ~4 fold
